Assays:
LTB4 release = assay: A23187 Induced LTB4 Release; type: cell-based; settings: Neutrophil; neutrophils from healthy human donors, 1 hour with test drug, 0.3 μg/ml A23187 for 10 min, LTB4 ELISA; range stated for the group of compounds tested; read-out: A123187 induced LTB4 release IC50
Experimental: The compounds of the present invention are tested in one or both of the assays described herein. Standard assays are used to evaluate activity of compounds in present invention on inflammatory cells. Attenuation of agonist-induced release of lipid mediator of neutrophil chemotaxis, leukotriene B4 (LTB4), is used to evaluate Inhibitory effect on neutrophils.
Venous blood was collected from healthy human donors using heparin as an anti-coagulant. Neutrophils were isolated from freshly drawn blood after dextran sedimentation and ficoll separation (Eur J Biochem. 169, 175, 1987), 180 μl of the of neutrophil suspension (0.2×10^6 cells/ml) was taken and added 19 μL of Hank's Buffer salt solution along with 1 μL of the test drug (200 times concentrated) in a 24 well plate and incubated at 37° C. for 1 hour, 3 minutes before the end of test compound incubation, 0.25 mM Ca^++/Mg^++ were added. Then, 0.3 μg/ml A23187 (Sigma Chem, USA) was added and incubated for further 10 min at 37° C. The reaction was stopped by adding 80 μL of cold methanol and centrifuged to remove cell debris (J Pharmacol Exp Ther. 297:267, 2001). The samples were analysed for LTB4 release using LTB4ELISA kits (Assay Design Inc., USA). The amount of LTB4 released was quantified and percent inhibition of LTB4 release was calculated with respect to the difference between the A23187 stimulated and negative control cells, to compute IC50 values.

recombinant 5-Lox = biological target: T1, recombinant 5-Lox (Homo sapiens, UniProt P09917); assay: Assay for 5-Lipoxygenase Activity; type: biochemical; settings: arachidonic acid, absorbance at 236 nm (AUC), range stated for the group of compounds tested, read-out: 5-1, poxygenase inhibition IC50
T1 sequence (P09917 1-674): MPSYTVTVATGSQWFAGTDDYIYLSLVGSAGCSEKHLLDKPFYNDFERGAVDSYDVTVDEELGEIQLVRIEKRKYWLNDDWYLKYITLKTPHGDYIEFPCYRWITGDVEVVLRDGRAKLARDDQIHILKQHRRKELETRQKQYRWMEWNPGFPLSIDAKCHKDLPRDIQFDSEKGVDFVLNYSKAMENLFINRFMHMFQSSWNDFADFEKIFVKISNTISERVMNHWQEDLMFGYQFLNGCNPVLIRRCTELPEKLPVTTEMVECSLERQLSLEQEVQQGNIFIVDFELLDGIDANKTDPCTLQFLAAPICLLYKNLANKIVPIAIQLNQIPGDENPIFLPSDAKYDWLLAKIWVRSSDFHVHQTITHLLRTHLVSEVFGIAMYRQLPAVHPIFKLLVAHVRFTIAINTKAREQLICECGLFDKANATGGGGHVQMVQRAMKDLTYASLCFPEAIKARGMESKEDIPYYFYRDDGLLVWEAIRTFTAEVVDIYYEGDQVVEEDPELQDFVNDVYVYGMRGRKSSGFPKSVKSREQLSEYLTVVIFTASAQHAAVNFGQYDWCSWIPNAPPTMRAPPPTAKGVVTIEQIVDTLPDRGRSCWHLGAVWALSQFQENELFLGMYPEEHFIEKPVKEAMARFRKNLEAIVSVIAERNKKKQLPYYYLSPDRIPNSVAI
Experimental: Assay for 5-Lipoxygenase Activity
In a 96 well UV-plate, 100 μl of phosphate buffer saline (PBS) containing DTT (200 μM), ATP (100 μM) and calcium chloride (100 μM) was added. To each well 0.5 μl of test drug (200 times concentrated) or vehicle was added, followed by 4 μl of recombinant 5-Lox (3 units/μl) and was incubated at 37° C. for 5 min. The reaction was initiated by adding 1 μl of 1 mM freshly prepared arachidonic acid and increase in absorbance was monitored at 236 nm for 10 min. (J Biol. Chem. 261:11512, 1986) A plot of absorbance verses time curve was prepared and area under curve (AUC) was computed for each well. Percent inhibition of AUC for different treatments was calculated with respect to the difference between the Arachidonic acid stimulated and negative control values, to compute IC50 values.

Row | Compound | IC50 (LTB4 release) [µM] | IC50 (recombinant 5-Lox) [µM]
1 | CC1(C)OCC(C2OC3OC(C)(C)OC3C2NC(=S)Nc2ccccc2F)O1 [Compound No. 103, 1,2;5,6-Di-O-isopropylidene-3-deoxy-3-{[(2-fluorophenyl)-amino]thiocarbonyl}-amino-α-D-glucofuranoside] | 0.13 to 30 | 0.3 to 10
2 | CC1(C)OCC(C2OC3OC(C)(C)OC3C2NC(=S)Nc2ccc(F)cc2)O1 [Compound No. 101, 1,2;5,6-Di-O-isopropylidene-3-deoxy-3-{[(4-fluorophenyl)-amino]thiocarbonyl}-amino-α-D-glucofuranoside] | 0.13 to 30 | –
3 | CC1(C)OCC(C2OC3OC(C)(C)OC3C2NC(=S)Nc2ccc(C#N)cc2)O1 [Compound No. 68, 1,2;5,6-Di-O-isopropylidene-3-deoxy-3-{[(4-cyanophenyl)-amino]thiocarbonyl}-amino-α-D-allofuranoside] | – | 0.3 to 10
4 | CC1(C)OCC(C2OC3OC(C)(C)OC3C2NC(=O)Cc2ccc(Cl)c(Cl)c2)O1 [Compound No. 100, 1,2;5,6-Di-O-isopropylidene-3-deoxy-3-{[(3,4-dichlorophenyl)-methyl]carbonyl}-amino-α-D-allofuranoside] | 0.13 to 30 | 0.3 to 10
5 | CC1(C)O[C@H]2O[C@H]([C@H]3COC(C)(C)O3)[C@@H](NC(=S)Nc3ccccc3[N+](=O)[O-])[C@H]2O1 [Compound No. 67, 1,2;5,6-Di-O-isopropylidene-3-deoxy-3-{[(2-nitrophenyl)-amino]thiocarbonyl}-amino-α-D-allofuranoside] | – | 0.3 to 10
6 | CC1(C)OCC(C2OC3OC(C)(C)OC3C2NC(=S)Nc2ccc(F)cc2)O1 [Compound No. 55, 1,2;5,6-Di-O-isopropylidene-3-deoxy-3-{[(4-fluorophenyl)-amino]thiocarbonyl}-amino-α-D-allofuranoside] | – | 0.3 to 10
7 | CC1(C)OCC(C2OC3OC(C)(C)OC3C2NC(=O)Cc2ccccc2C(F)(F)F)O1 [Compound No. 80, 1,2;5,6-Di-O-isopropylidene-3-deoxy-3-{[(2-trifluoromethylphenyl)-methyl]carbonyl}-amino-α-D-allofuranoside] | 0.13 to 30 | 0.3 to 10
8 | CC1(C)O[C@H]2O[C@H]([C@H]3COC(C)(C)O3)[C@@H](NC(=S)Nc3ccc(Cl)c(Cl)c3)[C@H]2O1 [Compound No. 60, 1,2;5,6-Di-O-isopropylidene-3-deoxy-3-{[(3,4-dichlorophenyl)-amino]thiocarbonyl}-amino-α-D-allofuranoside] | – | 0.3 to 10
9 | CC1(C)OCC(C2OC3OC(C)(C)OC3C2NC(=S)Nc2ccc(OCc3ccccc3)cc2)O1 [Compound No. 63, 1,2;5,6-Di-O-isopropylidene-3-deoxy-3-{[(4-benzyloxyphenyl)amino]thiocarbonyl}-amino-α-D-allofuranoside] | – | 0.3 to 10
10 | CC1(C)OCC(C2OC3OC(C)(C)OC3C2NC(=O)Cc2cccc(Cl)c2)O1 [Compound No. 84, 1,2;5,6-Di-O-isopropylidene-3-deoxy-3-{[(3-chlorophenyl)-methyl]carbonyl}-amino-α-D-allofuranoside] | 0.13 to 30 | 0.3 to 10
